Data taken from US6545131B1, “Tissue specific prodrug” (priority 1997, dated 2003).
Starred links: 1 amine or outer side, 2 acyl side, 3 side chain; linkers in the order of their positions; H or OH if unused. Residues, ends and D or L forms follow the SMILES beside them. *: point of attachment. AMC = Cc1cc(=O)oc2cc(N*)ccc12; Morpholide = C1CN(*)CCO1; CO = O=C([*:1])[*:2]

What was measured:
[1] = molecular target: T1, PSA (prostate specific antigen) (Homo sapiens, UniProt P07288); test: Cleavage of AMC-labelled peptide substrates by purified PSA (fluorescence of released AMC; Lineweaver-Burke kinetics); assay type: biochemical; settings: for picomoles of peptide cleaved/min/200 picomoles protease: PSA: pH 7.8, SKLQ, KLQ, LQ in 1.4% acetonitrile/buffer, Q-AMC in 0.2% formic acid/buffer; for Kcat / Km: PSA substrate, PSA assay buffer pH 7.8, Lineweaver-Burke
T1 construct: PSA was purified from human seminal plasma; from tissue; host or cells: human seminal plasma
T1 sequence (P07288 25-261): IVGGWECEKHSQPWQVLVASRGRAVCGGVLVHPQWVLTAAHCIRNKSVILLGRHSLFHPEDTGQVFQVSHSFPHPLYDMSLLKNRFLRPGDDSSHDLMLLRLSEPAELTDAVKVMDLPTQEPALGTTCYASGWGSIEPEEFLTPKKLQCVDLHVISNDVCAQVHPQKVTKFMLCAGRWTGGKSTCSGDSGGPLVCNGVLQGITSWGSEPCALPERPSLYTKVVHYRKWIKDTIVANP
Method: (§1) The peptides discussed herein were custom synthesized by Enzyme Systems Products (Dublin, Calif.) and, after HPLC separation and purification to >95%, the molecular weights were confirmed by mass spectroscopy. All peptides had morpholinocarbonyl protecting the amino terminus and 7-amino-4-methylcoumarin (AMC) attached via an amide bond to the carboxyl group of the carboxy-terminal amino acid. Peptides were first dissolved in distilled water (5 mM) and then diluted into PSA assay buffer (50 mM Tris/0.1M NaCl pH 7.8). The glutamine-AMC peptide had the amino terminus and side chain amine unprotected and was obtained from Bachem (Torrance, Calif.).
(§2) PSA was purified from human seminal plasma as described in Christensson, et al. Eur. J. Biochem. 194:755-765, (1990). Plasmin, urokinase, tissue plasminogen activator (TPA), human plasma and porcine pancreatic kallikrein and a 1-antichymotrypsin were obtained from Calbiochem (San Diego, Calif.). All other proteases were obtained from Sigma Chemical Co. (St. Louis, Mo.). Mouse serum was obtained from East Acres Biologicals (South Bridge, Mass.). Goat and calf sera were obtained from Gibco BRL (Grand Island, N.Y.). Rat serum was obtained in-house from sacrificed animals. Human serum was obtained from volunteers.
(§3) Cleavage was studied by measuring fluorescence change secondary to AMC release. Fluorescence detection was carried out with a Fluoroskan II 96 well fluorometric plate reader (ICN Biomedicals, Costa Mesa, Calif.), with excitation wavelength 355 nm and emission wavelength 460 nm. Data were collected and analyzed using Deltasoft III software (Biometallics, Princeton, N.J.). All reactions were performed at room temperature by the addition of substrate and proteases into PSA buffer, described below, in a final volume of 200 μL. The results were determined from the initial linear increase of fluorescence and were expressed as the picomoles of AMC released per minute based upon comparison to a standard curve of the fluorescence of known amounts of AMC (i.e., fluorescence was linear form 20 to 300 picomoles of AMC). The data were analyzed by Lineweaver-Burke reciprocal plots to determine the Michaelis-Menten constant (i.e., Km) expressed as the amount of substrate needed to saturate half of the enzyme and the catalytic rate constant (i.e., kcat) expressed as the amount of substrate converted to product per time per amount of enzyme.
(§4) Each assay contains 200 picomoles of the particular protease and 0.2 mM concentration of the particular substrate (i.e., 40,000 picomoles/200 μL of assay volume). The amino acid sequences expressed in one letter amino acid code represent the following amino acid sequences in the three letter amino acid code: EHSSKLQ (Glu-His-Ser-Ser-Lys-Leu-Gln; SEQ ID NO:10), QNKISYQ (Gln-Asn-Lys-Ile-Ser-Tyr-Gln; SEQ ID NO:11), ENKISYQ (Glu-Asn-Lys-Ile-Ser-Tyr-Gln; SEQ ID NO:12), and ATKSKQH (Ala-Thr-Lys-Ser-Lys-Gln-His; SEQ ID NO:13). Determinations listed in the table were carried out with substrates at 0.2 mM concentration in the PSA assay buffer (50 mM Tris/0.1M NaCl pH 7.8). The entry “UD” stands for “undetectable” and means that at most, 0.1 pmole of substrate cleavage per minute per 200 pmole protease took place. Asterisks represent experiments not performed. Abbreviations are as follows: PSA (prostate specific antigen), Chymo (chymotrypsin), Urokin (urokinase), TPA (tissue plasminogen activator), Thromb (thrombin), Kallik (human kallikrein, hK1).
The data in Table 2 are the results of kinetic experiments with the peptide substrates used in Example 1. Experimental details are found in Example 1.
The amino acid sequences expressed in one letter amino acid code represent the following amino acid sequences in the three letter amino acid code: EHSSKLQ (Glu-His-Ser-Ser-Lys-Leu-Gln; SEQ ID NO:10), HSSKLQ (His-Ser-Ser-Lys-Leu-Gln; SEQ ID NO:7), SKLQ (Ser-Lys-Leu-Gln; SEQ ID NO:1), and ATKSKQH (Ala-Thr-Lys-Ser-Lys-Gln-His; SEQ ID NO:13). […]

[2] = molecular target: T2, Cathepsin B (Homo sapiens, UniProt P07858); test: PSA substrate cleavage by purified intracellular protease; assay type: biochemical; settings: 0.2 mM substrate, pH 7.8; SKLQ, KLQ, LQ in 1.4% acetonitrile/buffer, Q-AMC in 0.2% formic acid/buffer
T2 construct: purchased Sigma Chemical Co
Method: as §3
(§5) A family of peptide substrates based upon the EHSSKLQ (SEQ ID NO:10) sequence was assayed for activity for the intracellular proteases, and the results given in Table 4.
(§6) The amino acid sequences expressed in one letter amino acid code represent the following amino acid sequences in the three letter amino acid code: EHSSKLQ (Glu-His-Ser-Ser-Lys-Leu-Gln; SEQ ID NO:10), The shorter sequences are formed by deleting amino acids from the amino terminal side of the sequence. Determinations listed in the table were carried out with substrates at 0.2 mM concentration in the PSA assay buffer (50 mM Tris/0.1M NaCl pH 7.8), except SKLQ (SEQ ID NO:1), KLQ and LQ, which were carried out in 1.4% acetonitrile/buffer and Q-AMC which was carried out in 0.2% formic acid/buffer, at pH 7.8. The entry “UD” stands for “undetectable” and means that at most, 0.1 pmole of substrate cleavage per minute per 200 pmole protease took place. Asterisks represent experiments not performed. Abbreviations are as follows: PSA (prostate specific antigen), Cath B, C, D (Cathepsins, B, C, D), Esterase (porcine liver esterase).

[3] = molecular target: T3, Cathepsin C (Homo sapiens, UniProt P53634); test: as above; assay type: biochemical; settings: 0.2 mM substrate, pH 7.8; SKLQ, KLQ, LQ in 1.4% acetonitrile/buffer, Q-AMC in 0.2% formic acid/buffer
T3 construct: purchased Sigma Chemical Co
T3 sequence (P53634 25-463): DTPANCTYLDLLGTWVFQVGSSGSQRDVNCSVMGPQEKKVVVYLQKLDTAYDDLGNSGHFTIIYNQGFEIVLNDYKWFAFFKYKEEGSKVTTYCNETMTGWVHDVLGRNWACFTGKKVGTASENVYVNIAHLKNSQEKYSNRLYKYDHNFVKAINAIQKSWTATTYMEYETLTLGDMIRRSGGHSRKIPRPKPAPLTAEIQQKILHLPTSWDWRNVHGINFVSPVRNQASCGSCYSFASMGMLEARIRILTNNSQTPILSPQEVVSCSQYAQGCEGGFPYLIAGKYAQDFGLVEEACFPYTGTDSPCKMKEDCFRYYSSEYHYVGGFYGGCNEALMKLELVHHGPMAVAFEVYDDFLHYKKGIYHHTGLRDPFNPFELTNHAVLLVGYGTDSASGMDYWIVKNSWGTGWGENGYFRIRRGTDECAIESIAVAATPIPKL
Method: as §3, §5, §6

[4] = molecular target: T4, Cathepsin D (Homo sapiens, UniProt P07339); test: as above; assay type: biochemical; settings: 0.2 mM substrate, pH 7.8; SKLQ, KLQ, LQ in 1.4% acetonitrile/buffer, Q-AMC in 0.2% formic acid/buffer
T4 construct: purchased Sigma Chemical Co
T4 sequence (P07339 65-412): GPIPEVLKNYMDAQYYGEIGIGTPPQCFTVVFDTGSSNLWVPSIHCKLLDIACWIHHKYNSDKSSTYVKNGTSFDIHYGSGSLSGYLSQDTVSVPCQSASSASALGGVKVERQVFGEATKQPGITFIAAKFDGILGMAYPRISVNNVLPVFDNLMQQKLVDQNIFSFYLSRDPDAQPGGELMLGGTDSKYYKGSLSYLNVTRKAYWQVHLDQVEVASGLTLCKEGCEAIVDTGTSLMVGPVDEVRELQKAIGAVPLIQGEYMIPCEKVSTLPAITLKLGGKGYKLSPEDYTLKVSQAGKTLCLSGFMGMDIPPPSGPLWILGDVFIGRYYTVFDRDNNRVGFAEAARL
Method: as §3, §5, §6

[5] = system: porcine liver esterase; test: as above; assay type: biochemical; settings: 0.2 mM substrate, pH 7.8; SKLQ, KLQ, LQ in 1.4% acetonitrile/buffer, Q-AMC in 0.2% formic acid/buffer
Method: as §3, §5, §6

[6] = system: Elastase; test: Peptide-AMC cleavage by purified extracellular protease; assay type: biochemical; settings: 0.2 mM substrate, PSA assay buffer pH 7.8
Method: as §1, §2, §3, §4

[7] = molecular target: T5, Plasmin (Homo sapiens, UniProt P00747); test: as above; assay type: biochemical; settings: 0.2 mM substrate, PSA assay buffer pH 7.8
T5 construct: purchased Calbiochem
T5 sequence (P00747 581-810 limits assumed, species assumed): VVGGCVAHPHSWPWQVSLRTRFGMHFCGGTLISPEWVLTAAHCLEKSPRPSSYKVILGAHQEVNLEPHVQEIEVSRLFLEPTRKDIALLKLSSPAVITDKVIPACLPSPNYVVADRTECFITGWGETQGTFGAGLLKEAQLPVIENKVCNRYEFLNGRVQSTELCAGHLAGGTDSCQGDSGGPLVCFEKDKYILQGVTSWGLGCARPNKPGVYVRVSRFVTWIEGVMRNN
T5 sequence (P00747 97-580 partner limits assumed, species assumed): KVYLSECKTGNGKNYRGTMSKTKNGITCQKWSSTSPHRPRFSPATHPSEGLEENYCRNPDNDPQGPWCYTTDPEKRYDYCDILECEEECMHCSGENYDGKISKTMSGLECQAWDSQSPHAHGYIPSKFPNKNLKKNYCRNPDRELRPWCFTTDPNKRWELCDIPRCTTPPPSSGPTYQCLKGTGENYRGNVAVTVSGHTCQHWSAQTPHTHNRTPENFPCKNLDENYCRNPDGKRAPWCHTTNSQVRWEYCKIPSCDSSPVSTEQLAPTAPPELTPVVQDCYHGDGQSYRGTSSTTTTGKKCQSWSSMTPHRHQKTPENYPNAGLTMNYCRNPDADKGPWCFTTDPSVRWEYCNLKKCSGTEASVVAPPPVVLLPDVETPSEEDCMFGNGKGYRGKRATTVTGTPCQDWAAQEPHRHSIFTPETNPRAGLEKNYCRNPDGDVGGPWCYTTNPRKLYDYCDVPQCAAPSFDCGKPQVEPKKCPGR
Method: as §1, §2, §3, §4

[8] = system: Trypsin; test: as above; assay type: biochemical; settings: 0.2 mM substrate, PSA assay buffer pH 7.8
Method: as §1, §2, §3, §4

[9] = molecular target: T6, chymotrypsin (Bos taurus, UniProt P00766); test: as above; assay type: biochemical; settings: 0.2 mM substrate, PSA assay buffer pH 7.8
T6 construct: purchased Sigma Chemical Co
Method: as §1, §2, §3, §4

[10] = system: human kallikrein, hK1; test: as above; assay type: biochemical; settings: 0.2 mM substrate, PSA assay buffer pH 7.8
Method: as §1, §2, §3, §4

[11] = molecular target: T7, thrombin (Homo sapiens, UniProt P00734); test: as above; assay type: biochemical; settings: 0.2 mM substrate, PSA assay buffer pH 7.8
T7 construct: purchased Sigma Chemical Co
Method: as §1, §2, §3, §4

[12] = molecular target: T8, tissue plasminogen activator (TPA) (Homo sapiens, UniProt P00750); test: as above; assay type: biochemical; settings: 0.2 mM substrate, PSA assay buffer pH 7.8
T8 construct: purchased Calbiochem
T8 sequence (P00750 36-562, species assumed): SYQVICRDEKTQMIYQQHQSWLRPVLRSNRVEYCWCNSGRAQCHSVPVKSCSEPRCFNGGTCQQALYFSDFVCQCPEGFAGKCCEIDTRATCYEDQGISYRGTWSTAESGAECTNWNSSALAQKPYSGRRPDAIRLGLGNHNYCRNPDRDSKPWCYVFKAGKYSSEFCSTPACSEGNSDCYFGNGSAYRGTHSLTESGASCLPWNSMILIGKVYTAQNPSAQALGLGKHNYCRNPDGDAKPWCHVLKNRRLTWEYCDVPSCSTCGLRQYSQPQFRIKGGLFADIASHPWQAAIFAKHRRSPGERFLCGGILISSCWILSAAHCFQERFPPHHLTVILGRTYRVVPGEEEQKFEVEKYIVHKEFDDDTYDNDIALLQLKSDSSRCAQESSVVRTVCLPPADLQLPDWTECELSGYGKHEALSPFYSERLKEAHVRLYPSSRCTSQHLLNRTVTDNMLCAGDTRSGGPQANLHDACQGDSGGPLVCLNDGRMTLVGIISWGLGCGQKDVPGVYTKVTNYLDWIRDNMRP
Method: as §1, §2, §3, §4

[13] = molecular target: T9, urokinase (Homo sapiens, UniProt P00749); test: as above; assay type: biochemical; settings: 0.2 mM substrate, PSA assay buffer pH 7.8
T9 construct: purchased Calbiochem
Method: as §1, §2, §3, §4

[14] = Stability of PSA substrates in serum (AMC release); assay type: in vitro ADME; settings: 0.2 mM substrate
Text: as §2, §3
Because the prodrug can be given systemically via the blood, it is useful to determine the stability of the substrates in sera from a variety of species. The substrates and experimental details are found as described in Example 1.
The amino acid sequences expressed in one letter amino acid code represent the following amino acid sequences in the three letter amino acid code: EHSSKLQ (Glu-His-Ser-Ser-Lys-Leu-Gln; SEQ ID NO:10), QNKISYQ (Gln-Asn-Lys-Ile-Ser-Tyr-Gln; SEQ ID NO:11), ENKISYQ (Glu-Asn-Lys-Ile-Ser-Tyr-Gln; SEQ ID NO:12) and ATKSKQH (Ala-Thr-Lys-Ser-Lys-Gln-His; SEQ ID NO:13). Determinations listed in the table were carried out with substrates at 0.2 mM concentration in the PSA assay buffer (50 mM Tris/0.1M NaCl pH 7.8). AMC is 7-amino-4-methylcoumarin. The human serum used was 100% for each assay. The entry “UD” stands for “undetectable”, and means that not more than 0.01 picomole of substrate per minute was cleaved.

Row | SMILES | picomoles of peptide cleaved/min/200 picomoles protease: PSA ([1]; 0.2 mM substrate) | Kcat [1] [s⁻¹] | Km [1] [µM] | picomoles of peptide cleaved/min/200 picomoles protease: Cath B [2] | picomoles of peptide cleaved/min/200 picomoles protease: Cath C [3] | picomoles of peptide cleaved/min/200 picomoles protease: Cath D [4] | picomoles of peptide cleaved/min/200 picomoles protease: Esterase [5] | other results
1 | Cc1cc(=O)oc2cc(NC(=O)[C@H](CCC(N)=O)NC(=O)[C@H](CC(C)C)NC(=O)[C@H](CCCCN)NC(=O)[C@H](CO)NC(=O)N3CCOCC3)ccc12 [SKLQ, Ser-Lys-Leu-Gln] ({Morpholide-CO}-SKLQ-{AMC}) | 29.6 picomoles/min/200 picomoles pr | 0.020 | 813 | 31.2 picomoles/min/200 picomoles pr | UD (at most, 0.1 pmole of substrate cleavage per minute per 200 pmole protease took place) | 6.4 picomoles/min/200 picomoles pr | UD (at most, 0.1 pmole of substrate cleavage per minute per 200 pmole protease took place) | –
2 | Cc1cc(=O)oc2cc(NC(=O)[C@H](CCC(N)=O)NC(=O)[C@H](CC(C)C)NC(=O)[C@H](CCCCN)NC(=O)[C@H](CO)NC(=O)[C@H](CO)NC(=O)[C@H](Cc3c[nH]cn3)NC(=O)N3CCOCC3)ccc12 [HSSKLQ, His-Ser-Ser-Lys-Leu-Gln] ({Morpholide-CO}-HSSKLQ-{AMC}) | 62.7 picomoles/min/200 picomoles pr | 0.011 | 470 | 17.3 picomoles/min/200 picomoles pr | UD (at most, 0.1 pmole of substrate cleavage per minute per 200 pmole protease took place) | 3.8 picomoles/min/200 picomoles pr | UD (at most, 0.1 pmole of substrate cleavage per minute per 200 pmole protease took place) | –
3 | Cc1cc(=O)oc2cc(NC(=O)[C@H](Cc3c[nH]cn3)NC(=O)[C@H](CCC(N)=O)NC(=O)[C@H](CCCCN)NC(=O)[C@H](CO)NC(=O)[C@H](CCCCN)NC(=O)[C@@H](NC(=O)[C@H](C)NC(=O)N3CCOCC3)[C@@H](C)O)ccc12 [ATKSKQH, Ala-Thr-Lys-Ser-Lys-Gln-His] ({Morpholide-CO}-ATKSKQH-{AMC}) | – | 0.0091 | 310 | – | – | – | – | Picomoles of substrate cleaved/minute/200 pmoles of indicated protease: PSA ([1]; 0.2 mM substrate, PSA assay buffer pH 7.8, room temperature): 16.0 picomoles/minute/200 pmoles pr; Picomoles of substrate cleaved/minute/200 pmoles of indicated protease: Elastase [6]: UD (at most, 0.1 pmole of substrate cleavage per minute per 200 pmole protease took place); Picomoles of substrate cleaved/minute/200 pmoles of indicated protease: Plasmin [7]: UD (at most, 0.1 pmole of substrate cleavage per minute per 200 pmole protease took place); Picomoles of substrate cleaved/minute/200 pmoles of indicated protease: Trypsin [8]: UD (at most, 0.1 pmole of substrate cleavage per minute per 200 pmole protease took place); Picomoles of substrate cleaved/minute/200 pmoles of indicated protease: Chymo [9]: 38.8 picomoles/minute/200 pmoles pr; Picomoles of substrate cleaved/minute/200 pmoles of indicated protease: Kallik [10]: UD (at most, 0.1 pmole of substrate cleavage per minute per 200 pmole protease took place); Picomoles of substrate cleaved/minute/200 pmoles of indicated protease: Thromb [11]: 0.2 picomoles/minute/200 pmoles pr; Picomoles of substrate cleaved/minute/200 pmoles of indicated protease: TPA [12]: UD (at most, 0.1 pmole of substrate cleavage per minute per 200 pmole protease took place); Picomoles of substrate cleaved/minute/200 pmoles of indicated protease: Urokin [13]: UD (at most, 0.1 pmole of substrate cleavage per minute per 200 pmole protease took place); picomles AMC released/minute: Calf [14]: UD (not more than 0.01 picomole of substrate per minute was cleaved); picomles AMC released/minute: Fetal Calf [14]: 1.19 picomoles/minute; picomles AMC released/minute: Goat [14]: 0.35 picomoles/minute; picomles AMC released/minute: Mouse [14]: 0.60 picomoles/minute; picomles AMC released/minute: Rat [14]: 4.31 picomoles/minute; picomles AMC released/minute: Human ([14]; human serum 100%): UD (not more than 0.01 picomole of substrate per minute was cleaved)
